Reference: PubChem BioAssay AID686963 (Sanford-Burnham Center for Chemical Genomics, 2013)
Active and inactive are the calls of the source.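 Rule for the calls: active = compounds blocking the small tyrosine phosphatase LMPTP with an IC50 of 20 micromolar or lower; inactive = the rest.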

Biological target: Low molecular weight phosphotyrosine protein phosphatase (Homo sapiens) (UniProt P24666)
Assay: LMPTP-A phosphatase inhibitors, analogs, SAR follow-up, orthogonal assay, biochemical, absorbance (AID 686963)
Conditions: recombinant LMPTP-A, pNPP absorbance, 50 min

Chain of Low molecular weight phosphotyrosine protein phosphatase (Homo sapiens) (P24666 whole entry, looked up): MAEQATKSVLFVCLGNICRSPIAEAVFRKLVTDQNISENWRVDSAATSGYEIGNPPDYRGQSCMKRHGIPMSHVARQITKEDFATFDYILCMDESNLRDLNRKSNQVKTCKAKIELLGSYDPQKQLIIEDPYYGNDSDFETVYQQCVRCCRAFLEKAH

SMILES | IC50
O=C(OCCNc1nc(-c2ccccc2)nc2ccccc12)c1cccnc1 | inactive
Clc1cccc(Cl)c1Cn1cnc(=NCc2ccco2)c2[nH]cnc21 | 11.6 µM
c1ccc(-c2cc(NCCN3CCCCC3)c3ccccc3n2)cc1 | 4.97 µM
c1ccc(-c2nc(NCCCn3ccnc3)c3ccccc3n2)cc1 | inactive
Fc1ccccc1-c1nc(NCCCN2CCOCC2)c2ccccc2n1 | inactive
c1ccc(-c2cc(N3CCCCC3)c3ccccc3n2)cc1 | inactive
Cc1c(CCC(=O)O)c(=O)oc2c(C)c(OCc3ccccc3Cl)ccc12 | 17.5 µM

Further lines, results first:

IC50 | SMILES
inactive | CC(C)OCCCNc1nc(-c2ccccc2)nc2ccccc12
13.5 µM | Nc1nc(N)c(Cc2ccc(Cl)cc2Cl)c(N)n1
inactive | CCc1nc(N)nc(N)c1-c1ccc(Cl)cc1
inactive | Cc1ccc(-c2nc(NCCN3CCOCC3)c3ccccc3n2)cc1
inactive | Cc1cccc(-c2nc(NCCCN3CCOCC3)c3ccccc3n2)c1
inactive | c1ccc(-c2nc(NCc3cccnc3)c3ccccc3n2)cc1
> 80 µM (inactive) | COc1ccccc1CNc1ncnc2ccsc12
inactive | Fc1ccccc1-c1nc(NC2CCCC2)c2ccccc2n1
inactive | O=C(OCCNc1nc(-c2ccccc2)nc2ccccc12)c1ccncc1
inactive | Cc1ccc(-c2nc(NCc3cccnc3)c3ccccc3n2)cc1
